These are literature values, as cited in patent EP0156318A2, “C-terminal amide cyclic renin inhibitors containing peptide isosteres” (Merck & Co., Inc., priority 1984, dated 1985).

Square brackets hold non-standard residues; d marks the D form. Peptide text beside a SMILES is read from it. * marks the point of attachment. Sta = CC(C)C[C@H](N)[C@@H](O)CC(=O)O; Isovaleryl = CC(C)CC(=O)*

In this data set the test system is hog renin. The following applies: after the injection of hog renin into nephrectomized rats.

Turning to `CC(C)CC(=O)N[C@H](C(=O)N[C@H](C(=O)N[C@@H](CC(C)C)[C@@H](O)CC(=O)N[C@@H](C)C(=O)N[C@@H](CC(C)C)[C@@H](O)CC(=O)O)C(C)C)C(C)C` [pepstatin] (Isovaleryl-VV[Sta]A[Sta]-OH), the “blood pressure in vivo” value is given as “reduce blood pressure”.
